The values that follow are results of earlier work, collected in US20060160088A1, “Diagnostics and therapeutics for diseases associated with g protein-coupled receptor 40 (gpr40)” (Bayer Healthcare AG, priority 2003, published 2006).

The target of this data set is GPR40 (Homo sapiens, UniProt O14842). The conditions noted are these: activation of GPR40; most potent fatty acid tested.

Each structure is given as a SMILES string.

GPR40, sequence (O14842 whole entry): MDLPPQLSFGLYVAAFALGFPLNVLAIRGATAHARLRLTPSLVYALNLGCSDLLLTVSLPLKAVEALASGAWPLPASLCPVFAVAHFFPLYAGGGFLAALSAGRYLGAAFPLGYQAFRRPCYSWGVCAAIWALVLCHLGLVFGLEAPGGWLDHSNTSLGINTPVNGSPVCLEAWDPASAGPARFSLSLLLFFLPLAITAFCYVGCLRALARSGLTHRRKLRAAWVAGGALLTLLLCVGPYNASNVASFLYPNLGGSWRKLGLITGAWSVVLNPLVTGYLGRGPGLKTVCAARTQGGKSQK

As for `CCCCCCCCC#CCC#CCC#CCCCC(=O)O` [Eicosatriynoic acid], the “pEC(50)” value is 5.7.
